Key:
Experiment in all cases: relative viability (nuclei count vs DMSO), 5 days (fraction); higher = more cells survive
NCI-H1651 = test system: NCI-H1651
Summary of the method: (§1)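 One day after seeding in 1536-well plates, lung cancer cell lines were dosed by pin tool. Dosing was either single-drug or a fixed anchor-drug dose plus five library-drug doses (not always all listed) in √10 steps. After 5 days, nuclei were stained in one fix-and-stain step and counted on 4× images, and relative viability is the nuclei count of treated wells over that of vehicle wells, given as the median of duplicate plates.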

NCI-H1623 = test system: NCI-H1623
Summary of the method: as §1

SK-MES-1 = test system: SK-MES-1
Summary of the method: as §1

IA-LM = test system: IA-LM
Summary of the method: as §1

A549 = test system: A549
Summary of the method: as §1

EBC-1 = test system: EBC-1
Summary of the method: as §1

Calu-6 = test system: Calu-6
Summary of the method: as §1

NCI-H1703 = test system: NCI-H1703
Summary of the method: as §1

SW 1573 = test system: SW 1573
Summary of the method: as §1

ChaGo-K-1 = test system: ChaGo-K-1
Summary of the method: as §1

COR-L23 = test system: COR-L23
Summary of the method: as §1

NCI-H1437 = test system: NCI-H1437
Summary of the method: as §1

NCI-H1299 = test system: NCI-H1299
Summary of the method: as §1

ABC-1 = test system: ABC-1
Summary of the method: as §1

Q: For `Cc1sc2c(c1C)C(c1ccc(Cl)cc1)=N[C@@H](CC(=O)OC(C)(C)C)c1nnc(C)n1-2` [JQ1] + COc1cc2c(Oc3ccc(NC(=O)C4(C(=O)Nc5ccc(F)cc5)CC4)cc3F)ccnc2cc1OCCCN1CCOCC1 [Foretinib] (partner 0.25 µM), which relative viability (NCI-H1651; first compound 0.04 µM) is on record?
A: Its relative viability is 0.904.

Q: What about the relative viability (NCI-H1651; first compound 0.1265 µM) of the same compound?
A: The relative viability was 0.787.

Q: What about the relative viability (NCI-H1651; first compound 0.4 µM) of the same compound?
A: The relative viability was 0.625.

Q: What about the relative viability (NCI-H1651; first compound 1.265 µM) of the same compound?
A: The relative viability was 0.352.

Q: What about the relative viability (NCI-H1651; first compound 4 µM) of the same compound?
A: Its relative viability is 0.365.

Q: What about the relative viability (NCI-H1623; first compound 0.04 µM) of the same compound?
A: Its relative viability is 0.878.

Q: And the relative viability (NCI-H1623; first compound 0.1265 µM)?
A: Its relative viability is 0.809.

Q: What about the relative viability (NCI-H1623; first compound 0.4 µM) of the same compound?
A: Its relative viability is 0.716.

Q: What about the relative viability (NCI-H1623; first compound 1.265 µM) of the same compound?
A: Its relative viability is 0.496.

Q: What about the relative viability (NCI-H1623; first compound 4 µM) of the same compound?
A: The relative viability was 0.441.

Q: What about the relative viability (SK-MES-1; first compound 0.04 µM) of the same compound?
A: Its relative viability is 0.817.

Q: And the relative viability (SK-MES-1; first compound 0.1265 µM)?
A: The relative viability was 0.642.

Q: And the relative viability (SK-MES-1; first compound 0.4 µM)?
A: The relative viability was 0.675.

Q: What about the relative viability (SK-MES-1; first compound 1.265 µM) of the same compound?
A: The relative viability was 0.359.

Q: And the relative viability (SK-MES-1; first compound 4 µM)?
A: Its relative viability is 0.333.

Q: What about the relative viability (IA-LM; first compound 0.04 µM) of the same compound?
A: The relative viability was 0.943.

Q: What about the relative viability (IA-LM; first compound 0.1265 µM) of the same compound?
A: The relative viability was 0.645.

Q: What about the relative viability (IA-LM; first compound 0.4 µM) of the same compound?
A: Its relative viability is 0.224.

Q: What about the relative viability (IA-LM; first compound 1.265 µM) of the same compound?
A: Its relative viability is 0.0743.

Q: What about the relative viability (IA-LM; first compound 4 µM) of the same compound?
A: The relative viability was 0.0831.

Q: And the relative viability (A549; first compound 0.04 µM)?
A: The relative viability was 0.881.

Q: And the relative viability (A549; first compound 0.1265 µM)?
A: The relative viability was 0.76.

Q: What about the relative viability (A549; first compound 0.4 µM) of the same compound?
A: The relative viability was 0.878.

Q: And the relative viability (A549; first compound 1.265 µM)?
A: The relative viability was 0.32.

Q: What about the relative viability (A549; first compound 4 µM) of the same compound?
A: The relative viability was 0.194.

Q: What about the relative viability (EBC-1; first compound 0.04 µM) of the same compound?
A: Its relative viability is 0.098.

Q: What about the relative viability (EBC-1; first compound 0.1265 µM) of the same compound?
A: Its relative viability is 0.0891.

Q: What about the relative viability (EBC-1; first compound 0.4 µM) of the same compound?
A: The relative viability was 0.0572.

Q: And the relative viability (EBC-1; first compound 1.265 µM)?
A: Its relative viability is 0.0617.

Q: What about the relative viability (EBC-1; first compound 4 µM) of the same compound?
A: Its relative viability is 0.0624.

Q: And the relative viability (Calu-6; first compound 0.04 µM)?
A: Its relative viability is 0.848.

Q: What about the relative viability (Calu-6; first compound 0.1265 µM) of the same compound?
A: Its relative viability is 0.79.

Q: What about the relative viability (Calu-6; first compound 0.4 µM) of the same compound?
A: Its relative viability is 0.756.

Q: What about the relative viability (Calu-6; first compound 1.265 µM) of the same compound?
A: The relative viability was 0.478.

Q: And the relative viability (Calu-6; first compound 4 µM)?
A: The relative viability was 0.406.

Q: And the relative viability (NCI-H1703; first compound 0.04 µM)?
A: Its relative viability is 0.298.

Q: And the relative viability (NCI-H1703; first compound 0.1265 µM)?
A: The relative viability was 0.284.

Q: And the relative viability (NCI-H1703; first compound 0.4 µM)?
A: Its relative viability is 0.313.

Q: And the relative viability (NCI-H1703; first compound 1.265 µM)?
A: The relative viability was 0.318.

Q: And the relative viability (NCI-H1703; first compound 4 µM)?
A: Its relative viability is 0.332.

Q: What about the relative viability (SW 1573; first compound 0.04 µM) of the same compound?
A: The relative viability was 0.907.

Q: What about the relative viability (SW 1573; first compound 0.1265 µM) of the same compound?
A: The relative viability was 0.837.

Q: What about the relative viability (SW 1573; first compound 0.4 µM) of the same compound?
A: Its relative viability is 0.777.

Q: What about the relative viability (SW 1573; first compound 1.265 µM) of the same compound?
A: Its relative viability is 0.439.

Q: What about the relative viability (SW 1573; first compound 4 µM) of the same compound?
A: The relative viability was 0.384.

Q: What about the relative viability (ChaGo-K-1; first compound 0.04 µM) of the same compound?
A: The relative viability was 0.95.

Q: What about the relative viability (ChaGo-K-1; first compound 0.1265 µM) of the same compound?
A: Its relative viability is 0.827.

Q: What about the relative viability (ChaGo-K-1; first compound 0.4 µM) of the same compound?
A: Its relative viability is 0.929.

Q: And the relative viability (ChaGo-K-1; first compound 1.265 µM)?
A: Its relative viability is 0.7.

Q: What about the relative viability (ChaGo-K-1; first compound 4 µM) of the same compound?
A: Its relative viability is 0.583.

Q: What about the relative viability (COR-L23; first compound 0.04 µM) of the same compound?
A: Its relative viability is 0.98.

Q: What about the relative viability (COR-L23; first compound 0.1265 µM) of the same compound?
A: The relative viability was 0.73.

Q: And the relative viability (COR-L23; first compound 0.4 µM)?
A: The relative viability was 0.892.

Q: And the relative viability (COR-L23; first compound 1.265 µM)?
A: The relative viability was 0.663.

Q: And the relative viability (COR-L23; first compound 4 µM)?
A: Its relative viability is 0.432.

Q: And the relative viability (NCI-H1437; first compound 0.04 µM)?
A: Its relative viability is 1.11.

Q: What about the relative viability (NCI-H1437; first compound 0.1265 µM) of the same compound?
A: The relative viability was 1.23.

Q: What about the relative viability (NCI-H1437; first compound 0.4 µM) of the same compound?
A: Its relative viability is 1.03.

Q: And the relative viability (NCI-H1437; first compound 1.265 µM)?
A: Its relative viability is 0.464.

Q: What about the relative viability (NCI-H1437; first compound 4 µM) of the same compound?
A: The relative viability was 0.384.

Q: What about the relative viability (NCI-H1299; first compound 0.04 µM) of the same compound?
A: Its relative viability is 1.03.

Q: And the relative viability (NCI-H1299; first compound 0.1265 µM)?
A: Its relative viability is 0.947.

Q: And the relative viability (NCI-H1299; first compound 0.4 µM)?
A: The relative viability was 0.819.

Q: What about the relative viability (NCI-H1299; first compound 1.265 µM) of the same compound?
A: The relative viability was 0.558.

Q: What about the relative viability (NCI-H1299; first compound 4 µM) of the same compound?
A: Its relative viability is 0.34.

Q: And the relative viability (ABC-1; first compound 0.04 µM)?
A: The relative viability was 0.916.

Q: And the relative viability (ABC-1; first compound 0.1265 µM)?
A: Its relative viability is 0.859.

Q: And the relative viability (ABC-1; first compound 0.4 µM)?
A: Its relative viability is 0.89.

Q: What about the relative viability (ABC-1; first compound 1.265 µM) of the same compound?
A: Its relative viability is 0.395.

Q: And the relative viability (ABC-1; first compound 4 µM)?
A: The relative viability was 0.399.

Source: the supplement of paper PMC10307832
